Laboratory results taken from US5686637A, “Antifungal agent” (Merck & Co., Inc., priority 1995, dated 1997).
In brackets after ≈: the same amount, converted by molar mass.

Key:
[1] = test system: C. albicans (CLY539); test: microbroth dilution assay (MIC/MFC), C. albicans (CLY539); type: cell-based; conditions: Candida albicans, C. albicans (CLY539)
Description: (§1) In the microbroth dilution assay, microorganisms were selected by streaking a yeast culture on Sabouraud dextrose agar (SDA) incubating for 24-48 hours at 35°-37° C., thereafter selected 3 to 5 characteristic colonies and transferring to a fresh plate and incubating under similar conditions. From the regrowth, 3 to 5 colonies were selected and suspended in. 10 milliliters of YM broth (Dffco) and incubated for 4 hours at 35°-37° C. shaking at 225 rpm. The 4 hour broth cultures were adjusted optically to 86% transmission resulting in a concentration of 1-5×10^6 cfu/ml which was further diluted 1:100 in YNBD (yeast nitrogen base with 1% dextrose) to obtain a concentration of 1-5×10^4 cfu/ml for use as inocula.
(§2) The test compound, Compound I, was prepared as a stock solution of 128 μg/ml in 20% methanol and 75 μl of said solution delivered to each well in column 1 of a 96-well, U-bottomed microtiter plate. The compounds in column 1 were then serially diluted two-fold to yield concentrations from 32 μg/ml to 0.15 μg/ml.
as §2, with “Amphotericin, the control” for “The test”, “compound,” for “compound, Compound I,”, “512” for “128”, “10% DMSO” for “20% methanol”, “128” for “32”, “0.6” for “0.15”
(§3) The plates containing the diluted compounds were then inoculated with 75 μl/well of the appropriate microorganism and incubated for 48 hours at 35°-37° C. with MIC (minimum inhibitory concentration) determinations carried out after 24 hours of incubation. Growth and sterility controls for each organism and sterility checks for the compounds also were carded out.
(§4) After recording MICs at 24 hours, the microtiter plates were shaken gently to resuspend the cells. A 1.5 μl sample was transferred from each well of the 96-well microtiter plate to a single reservoir inoculum plate containing SDA. The inoculated SDA and corresponding microtiter plates were incubated for 24 hours at 35°-37° C. For Cryptococus neoformans, SDA plates were inoculated at 48 hours after recording MICs and incubated 48 hours before reading the MFC. MFC is the lowest concentration of compound at which either no growth or growth of ≤4 colonies occur.

[2] = test system: C. parapsilosis (MY 1010); test: microbroth dilution assay (MIC/MFC), C. parapsilosis (MY 1010); type: cell-based; conditions: Lodderomyces parapsilosis, C. parapsilosis (MY 1010)
Description: as §1, §2
as §2, with “Amphotericin, the control” for “The test”, “compound,” for “compound, Compound I,”, “512” for “128”, “10% DMSO” for “20% methanol”, “128” for “32”, “0.6” for “0.15”
as §3, §4

[3] = test system: Aspergillus fumigatus (MF 4839); test: microbroth dilution assay (MIC), Aspergillus fumigatus (MF 4839); type: cell-based; conditions: Aspergillus fumigatus (MF 4839); 24 h, 35°-37° C.; read-out: Minimum Inhibitory Concentration (MIC)
Description: as §1
as §2, with “μg/ml. […]” for “μg/ml.”
(§5) After recording MICs at 24 hours, the microtiter plates were shaken gently to resuspend the cells. […] For Cryptococus neoformans, SDA plates were inoculated at 48 hours after recording MICs and incubated 48 hours before reading the MFC. […]

[4] = test system: filamentous fungi (AspergiIlus fiavus, Fusarium oxysporum, usalago zeae and the like); test: agar plate inhibition zone test, filamentous fungi; type: cell-based; conditions: agar plates, methanol solutions, 28° C. or 37° C., 24 hours
Description: Compound I is also useful for inhibiting the growth of filamentous fungi. Such use may be illustrated in the following tests with AspergiIlus fiavus, Fusarium oxysporum, usalago zeae and the like. Inocula for filamentous fungi are prepared by scraping the surface of stock plates maintained on potato dextrose agar with a moistened sterile dacron swab. The spores and mycelia are then suspended in 10 milliliters of sterile potato dextrose broth and adjusted to 70 percent transmission at 660 nm. The samples to be tested for production of antifungal agent are applied directly to the agar plates as methanol solutions. When the sample to be tested is crude broth, it may be centrifuged prior to application. The assay plates are then incubated at either 28° C. or 37° C. for 24 hours. Following incubation, the inhibition zones are measured. Growths are also noted as to appearance.

[5] = test system: C. glabrata (MY1381); test: microbroth dilution assay (MIC/MFC), C. glabrata (MY1381); type: cell-based; conditions: Nakaseomyces glabratus, C. glabrata (MY1381)
Description: as §1, §2
as §2, with “Amphotericin, the control” for “The test”, “compound,” for “compound, Compound I,”, “512” for “128”, “10% DMSO” for “20% methanol”, “128” for “32”, “0.6” for “0.15”
as §3, §4

[6] = test system: C. pseudotropicalis (MY 2099); test: microbroth dilution assay (MIC/MFC), C. pseudotropicalis (MY 2099); type: cell-based, Candida pseudotropicalis; conditions: Kluyveromyces marxianus, C. pseudotropicalis (MY 2099)
Description: as §1, §2
as §2, with “Amphotericin, the control” for “The test”, “compound,” for “compound, Compound I,”, “512” for “128”, “10% DMSO” for “20% methanol”, “128” for “32”, “0.6” for “0.15”
as §3, §4

[7] = test system: C. guillermondii (MY 1019); test: microbroth dilution assay (MIC/MFC), C. guillermondii (MY 1019); type: cell-based; conditions: C. guillermondii (MY 1019)
Description: as §1, §2
as §2, with “Amphotericin, the control” for “The test”, “compound,” for “compound, Compound I,”, “512” for “128”, “10% DMSO” for “20% methanol”, “128” for “32”, “0.6” for “0.15”
as §3, §4

[8] = test system: Saccharomyces cerevisiae (MY 2140); test: microbroth dilution assay (MIC/MFC), Saccharomyces cerevisiae (MY 2140); type: cell-based; conditions: Saccharomyces cerevisiae (MY 2140)
Description: as §1, §2
as §2, with “Amphotericin, the control” for “The test”, “compound,” for “compound, Compound I,”, “512” for “128”, “10% DMSO” for “20% methanol”, “128” for “32”, “0.6” for “0.15”
as §3, §4

[9] = test system: C. albicans (CA2); test: microbroth dilution assay (MIC/MFC), C. albicans (CA2); type: cell-based; conditions: Candida albicans, C. albicans (CA2)
Description: as §1, §2
as §2, with “Amphotericin, the control” for “The test”, “compound,” for “compound, Compound I,”, “512” for “128”, “10% DMSO” for “20% methanol”, “128” for “32”, “0.6” for “0.15”
as §3, §4

[10] = test system: C. topicalis (MY1012); test: microbroth dilution assay (MIC/MFC), C. topicalis (MY1012); type: cell-based; conditions: C. topicalis (MY1012)
Description: as §1, §2
as §2, with “Amphotericin, the control” for “The test”, “compound,” for “compound, Compound I,”, “512” for “128”, “10% DMSO” for “20% methanol”, “128” for “32”, “0.6” for “0.15”
as §3, §4

[11] = test system: Candida albicans (MY 1055); test: microbroth dilution assay (MIC/MFC), Candida albicans (MY 1055); type: cell-based; conditions: Candida albicans (MY 1055)
Description: as §1, §2
as §2, with “Amphotericin, the control” for “The test”, “compound,” for “compound, Compound I,”, “512” for “128”, “10% DMSO” for “20% methanol”, “128” for “32”, “0.6” for “0.15”
as §3, §4

[12] = test system: panel of fungi; test: broth microdilution assay against a panel of fungi; type: cell-based; conditions: MIC and MFC
Description: as §1
as §2, with “μg/ml. […]” for “μg/ml.”
as §5

[13] = test system: A. fumigatus (5668); test: microbroth dilution assay (MIC), A. fumigatus (5668); type: cell-based; conditions: Aspergillus fumigatus; A. fumigatus (5668); 24 h, 35°-37° C.; read-out: Minimum Inhibitory Concentration (MIC)
Description: as §1
as §2, with “μg/ml. […]” for “μg/ml.”
as §5

[14] = test system: Cryptococcus neoformans (MY 2062); test: microbroth dilution assay (MIC), Cryptococcus neoformans (MY 2062); type: cell-based; conditions: 24 h; Cryptococcus neoformans (MY 2062); 35°-37° C.; SDA plates inoculated at 48 hours after recording MICs; read-out: Minimum Inhibitory Concentration (MIC)
Description: as §1
as §2, with “μg/ml. […]” for “μg/ml.”
as §5

[15] = test system: C. tropicalis (MY1124); test: microbroth dilution assay (MIC/MFC), C. tropicalis (MY1124); type: cell-based; conditions: Candida tropicalis, C. tropicalis (MY1124)
Description: as §1, §2
as §2, with “Amphotericin, the control” for “The test”, “compound,” for “compound, Compound I,”, “512” for “128”, “10% DMSO” for “20% methanol”, “128” for “32”, “0.6” for “0.15”
as §3, §4

[16] = 24 h, 35°-37° C., read-out: Minimum Inhibitory Concentration (MIC)
[17] = no growth or ≤4 colonies on SDA after 24 h, read-out: Minimum Fungicidal Concentration (MFC)

SMILES: CCCCCCCCCCC(C)C(O)C(C)/C=C(C)/C=C(\C)C(=O)C(C)/C=C(\C)C(=O)OC(CO)C(O)C(O)C(=O)O (stereo not shown) [Compound I]
- MIC [1, 16]: 2 µg/mL (≈ 3.35 µM)
- MFC [1, 17]: 2 µg/mL (≈ 3.35 µM)
- MIC [2, 16]: 2 µg/mL (≈ 3.35 µM)
- MFC [2, 17]: 2 µg/mL (≈ 3.35 µM)
- MIC [3]: > 32 µg/mL
- inhibition of growth of fungal organisms (inhibition zones) [4]: effectively inhibit growth of the fungal organisms
- MIC [5, 16]: 4 µg/mL (≈ 6.7 µM)
- MFC [5, 17]: 4 µg/mL (≈ 6.7 µM)
- MIC [6, 16]: 1 µg/mL (≈ 1.68 µM)
- MFC [6, 17]: 1 µg/mL (≈ 1.68 µM)
- MIC [7, 16]: 4 µg/mL (≈ 6.7 µM)
- MFC [7, 17]: 16 µg/mL (≈ 26.8 µM)
- MIC [8, 16]: 4 µg/mL (≈ 6.7 µM)
- MFC [8, 17]: 4 µg/mL (≈ 6.7 µM)
- MIC [9, 16]: 2 µg/mL (≈ 3.35 µM)
- MFC [9, 17]: 2 µg/mL (≈ 3.35 µM)
- MIC [10, 16]: 1 µg/mL (≈ 1.68 µM)
- MFC [10, 17]: 0.5 µg/mL (≈ 0.838 µM)
- MIC [11, 16]: 2 µg/mL (≈ 3.35 µM)
- MFC [11, 17]: 2 µg/mL (≈ 3.35 µM)
- effective concentrations against a panel of fungi compared with amphotericin B [12]: effective at concentrations comparable to an established antifungal agent, amphotericin B
- MIC [13]: > 32 µg/mL
- MIC [14]: 2 µg/mL (≈ 3.35 µM)
- MIC [15, 16]: 2 µg/mL (≈ 3.35 µM)
- MFC [15, 17]: 2 µg/mL (≈ 3.35 µM)
